Assay results reported in patent publication US6613961B1, “Plants capable of metabolizing drugs and use thereof” (priority 1998, dated 2003).

Assays:
[1] = system: potato transformants; assay: Herbicide metabolism in the potato transformants; format: in vivo, potato (MayQueen); details: 14C-labeled pyributicarb 10 μM in the medium; cultured for 8 days; thin layer chromatography
Experimental: The potato transformants proliferated from axillary buds, elongated to about 10 cm, were cultured in the medium added with the ^14C-labeled pyributicarb at the concentration of 10 μM. The plants were cultured for 8 days, and metabolites were extracted from the plants (Murakami, M. et al., J. Pesticide. Sci., 1997, 22, 222-225). The metabolites and the culture solution were analyzed by thin layer chromatography (Shiota, N. et al., Pestic. Biochem. Physiol., 1996, 54, 190-198).

[2] = biological target: T1, Human CYP2C19 (Homo sapiens, UniProt P33261); assay: Metabolism of herbicides in microsomes of recombinant yeast expressing human P450; format: in vitro ADME
T1 construct: purchased Sumitomo Chemical; host or cells: recombinant yeast, microsomal fraction
T1 sequence (P33261 whole entry): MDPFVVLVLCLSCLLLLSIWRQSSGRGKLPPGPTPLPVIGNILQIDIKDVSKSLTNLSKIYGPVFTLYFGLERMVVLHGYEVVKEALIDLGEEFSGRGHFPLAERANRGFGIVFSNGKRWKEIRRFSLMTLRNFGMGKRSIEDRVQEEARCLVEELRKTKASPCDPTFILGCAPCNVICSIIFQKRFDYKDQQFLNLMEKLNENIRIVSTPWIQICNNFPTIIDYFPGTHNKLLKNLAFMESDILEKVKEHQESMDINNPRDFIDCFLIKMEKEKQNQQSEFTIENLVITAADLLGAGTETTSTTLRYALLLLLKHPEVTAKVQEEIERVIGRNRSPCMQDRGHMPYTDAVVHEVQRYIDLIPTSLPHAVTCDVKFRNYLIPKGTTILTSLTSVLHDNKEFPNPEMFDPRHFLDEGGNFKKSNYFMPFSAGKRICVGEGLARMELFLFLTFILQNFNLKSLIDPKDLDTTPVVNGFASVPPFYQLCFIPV

[3] = system: seeds of Nipponbare into which the gene was not introduced; assay: Germination assay for herbicide resistance, non-introduced rice seeds; format: in vivo, rice (Nipponbare); details: after about 4 to 7 days
[4] = system: S1972 (human CYP2B6); details: acetochlor 20 μmol, metolachlor 30 μmol dispersed
[5] = system: non-transformed MayQueen; assay: Assay for herbicide resistance, non-transformed potato; format: in vivo; details: 14 days after dispersal
Text: 4, the same growth as that when herbicide was not dispersed.

[6] = system: human P4502C18 gene-introduced rice; assay: Germination assay for herbicide resistance of human P4502C18 gene-introduced rice R1 seeds; format: in vivo
[7] = system: S1974 (human CYP2C19); assay: Herbicide tolerance assay for transformants; format: in vivo, Solanum tuberosum cv. MayQueen; details: acetochlor 20 μmol, atrazine 1.2 μmol, metolachlor 30 μmol dispersed
Text: Then, herbicides were dispersed.

[8] = system: human P4502C19 gene-introduced rice; assay: Germination assay for herbicide resistance of human P4502C19 gene-introduced rice R1 seeds; format: in vivo
[9] = system: potato transformants; assay: Assay for herbicide resistance of potato transformants (human CYP2C19); details: for Resistance to herbicide: Transformant, 14 days after dispersal
[10] = biological target: T2, Human CYP2B6 (Homo sapiens, UniProt P20813); assay: Metabolism of herbicides in microsomes of recombinant yeast expressing human P450
T2 sequence (P20813 1-491): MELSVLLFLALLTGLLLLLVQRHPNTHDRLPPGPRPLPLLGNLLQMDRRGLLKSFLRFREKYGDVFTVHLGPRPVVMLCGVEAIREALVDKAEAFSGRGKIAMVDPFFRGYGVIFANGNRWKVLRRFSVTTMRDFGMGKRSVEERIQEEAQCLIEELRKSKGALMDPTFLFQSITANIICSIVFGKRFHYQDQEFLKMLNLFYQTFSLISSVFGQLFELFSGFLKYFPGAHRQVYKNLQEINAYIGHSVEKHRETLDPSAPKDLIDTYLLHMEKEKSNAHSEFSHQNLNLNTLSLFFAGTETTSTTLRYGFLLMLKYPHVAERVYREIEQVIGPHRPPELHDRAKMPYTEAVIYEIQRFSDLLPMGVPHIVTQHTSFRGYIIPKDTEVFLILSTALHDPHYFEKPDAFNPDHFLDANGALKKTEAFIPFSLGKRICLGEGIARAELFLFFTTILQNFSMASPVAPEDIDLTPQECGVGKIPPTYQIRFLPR
Experimental: The reaction was carried out in a range of temperature suitable for an organism from which a p450 molecular species is derived (for example, 37° C. for human P450), by mixing with air while vigorously shaking, within a period during which an enzyme is not inactivated (for example, for 10 to 60 min).
From the height of the peak, a metabolized amount can be obtained.
To 0.1 M potassium phosphate buffer (pH 7.4), the microsomal fraction prepared from each of yeast strains respectively expressing one of 11 human P450 molecular species (obtained from Sumitomo Chemical) was added so that the amount of the p450 would be 25 pmol. Furthermore, 0.5 mM NADPH, 5 mM glucose 6 phosphate, 1 U/ml glucose 6 phosphate dehydrogenase, and 0.1 mM each of the following herbicides (those available in the market were used) were added at the final concentrations thereto to make the total volume of 100 μl. The reaction mixture was shaken at 37° C. for 60 min, and an organic solvent was added thereto for the extraction. The extract was applied to the high performance liquid chromatography, and the metabolite was measured.

[11] = system: tobacco R0 plants; assay: Herbicide metabolism in the tobacco R0 plants; format: in vivo; details: 14C-labeled 0.5 mM chlorosulfuron (20 μl) on the leaf surface; 50 hours; thin layer chromatography
Experimental: Using the tobacco R0 plants 3 weeks after transplantation, metabolism of chlorosulfuron was measured by the method of Sweetser et al. (Sweetser, P. B. et al., Pestic. Biochem. Physiol., 1982, 17, 18-23). ^14C-labeled 0.5 mM chlorosulfuron (20 μl) was spread on the leaf surface. The leaf surface was washed with acetone 50 hours after the treatment, and a metabolite was extracted by acetone extraction. The extract was concentrated and dried by a rotary evaporator, dissolved in methanol, and analyzed by thin layer chromatography using benzene:acetone:formic acid (30:10:1) as an solvent.

[12] = biological target: Human CYP2C9 (Homo sapiens, UniProt P11712); assay: Herbicide metabolism by human P450 molecular species (microsomal fraction); format: in vitro ADME
Sequence of Human CYP2C9 (P11712 whole entry): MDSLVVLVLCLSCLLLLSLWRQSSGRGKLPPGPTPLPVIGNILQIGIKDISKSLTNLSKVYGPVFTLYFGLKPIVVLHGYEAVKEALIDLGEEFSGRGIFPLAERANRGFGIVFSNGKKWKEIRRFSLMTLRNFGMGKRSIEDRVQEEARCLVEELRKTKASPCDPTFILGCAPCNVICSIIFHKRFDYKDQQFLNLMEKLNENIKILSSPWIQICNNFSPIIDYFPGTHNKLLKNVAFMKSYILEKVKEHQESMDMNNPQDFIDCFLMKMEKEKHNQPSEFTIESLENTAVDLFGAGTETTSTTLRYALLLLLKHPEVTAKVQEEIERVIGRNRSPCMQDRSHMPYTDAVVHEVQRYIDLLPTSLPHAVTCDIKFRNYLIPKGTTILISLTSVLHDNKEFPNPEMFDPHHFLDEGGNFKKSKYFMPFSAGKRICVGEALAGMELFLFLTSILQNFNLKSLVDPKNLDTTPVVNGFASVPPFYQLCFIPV

[13] = system: non-transformed tobacco plants; only vector introduced; assay: Assay for herbicide resistance in tobacco, control plants; format: in vivo; details: for Tolerance to chlorosulfuron: cultured for 40 days
Experimental: (§1) Transformed and non-transformed tobacco plants proliferated from axillary buds were transferred onto hormone-free Murashige & Skoog (MS) medium containing 0, 20, 50, 100, or 200 nM chlorosulfuron for assaying tolerance at growth.
(§2) 4, the same growth as that when the herbicide was not dispersed.

[14] = system: human P4502C9 gene-introduced rice; assay: Germination assay for herbicide resistance of human P4502C9 gene-introduced rice R1 seeds; format: in vivo
[15] = system: tobacco transformants; assay: Assay for herbicide resistance in the tobacco R0 plants (human CYP2C9); format: in vivo; set-up: Tolerance to chlorosulfuron: key: 1: almost dead; 2: severely inhibited growth; 3: slightly inferior growth; 4: the same growth as that when the herbicide was not dispersed; details: for Tolerance to chlorosulfuron: cultured for 40 days
Experimental: as §1, §2

## COc1cccc(N(C)C(=S)Oc2cccc(C(C)(C)C)c2)n1 [pyributicarb]
[1]
  amounts of pyributicarb in transgenic plant and in the medium compared with non-transformed MayQueen: obviously reduced
[2]
  metabolic reaction confirmed: thioester cleavage

## CCc1cccc(C)c1N(C(=O)CCl)C(C)COC (stereo not shown) [metolachlor]
[3]; […] metolachlor, […] alachlor, 15 μM triflurarin
  Germination of seeds: inhibited
[3]; metolachlor 4 μM
  Germination of seeds: inhibited
[4]
  resistance of the transformant to the herbicide: strong resistance
[5]; Metolachlor 10 μmol/pot
  Resistance to herbicide: 2
[5]; Metolachlor 15 μmol/pot
  Resistance to herbicide: 2
[5]; Metolachlor 20 μmol/pot
  Resistance to herbicide: 1.5
[6]; 2C18, 4 μM · 2 ml, 72 sample lines
  The number of tolerant lines: 3
[6]; metolachlor 4 μM
  elongation of shoots and roots of segregated individuals: normally elongated
[7]
  resistance of the transformant to the herbicide: strong resistance
[8]; 2C19, 4 μM · 2 ml, 68 sample lines
  The number of tolerant lines: 13
[8]; metolachlor 4 μM
  elongation of shoots and roots of segregated individuals: normally elongated
[9]; Metolachlor 10 μmol/pot
  Resistance to herbicide: 2.5
[9]; Metolachlor 15 μmol/pot
  Resistance to herbicide: 3.5
[9]; Metolachlor 20 μmol/pot
  Resistance to herbicide: 2.5
[9]; herbicide dispersed 1 week after transfer to pots
  resistance of the transformant compared with the non-transformed MayQueen: higher resistance
[10]
  metabolic reaction confirmed: O-deethylation, O-demethylation

## COc1nc(C)nc(NC(=O)NS(=O)(=O)c2ccccc2Cl)n1 [chlorosulfuron]
[11]
  water-soluble substances which remained at the starting point of the development, in the transformants: increased
[3]; chlorosulfuron 250 nM
  Germination of seeds: inhibited
[12]
  metabolic reaction confirmed: ring hydroxylation
[13]; 50 nM chlorosulfuron
  growth of the non-transformed plants: completely inhibited
[13]; Non-transformed, 20 nM
  Tolerance to chlorosulfuron: 2
[13]; Non-transformed, 50 nM
  Tolerance to chlorosulfuron: 1.5
[13]; Non-transformed, 100 nM
  Tolerance to chlorosulfuron: 1
[13]; Non-transformed, 200 nM
  Tolerance to chlorosulfuron: 0.5
[13]; Only vector introduced, 20 nM
  Tolerance to chlorosulfuron: 2
[13]; Only vector introduced, 50 nM
  Tolerance to chlorosulfuron: 1.5
[13]; Only vector introduced, 100 nM
  Tolerance to chlorosulfuron: 1
[13]; Only vector introduced, 200 nM
  Tolerance to chlorosulfuron: 0.5
[14]; 2C9, 250 nM · 2 ml, 44 sample lines
  The number of tolerant lines: 15
[14]; chlorosulfuron 250 nM
  elongation of shoots and roots of segregated individuals: normally elongated
[15]; 200 nM chlorosulfuron
  growth of the transformants: grew
[15]; transformant N8, 20 nM
  Tolerance to chlorosulfuron: 4
[15]; transformant N8, 50 nM
  Tolerance to chlorosulfuron: 4
[15]; transformant N8, 100 nM
  Tolerance to chlorosulfuron: 2.5
[15]; transformant N8, 200 nM
  Tolerance to chlorosulfuron: 2
[15]; transformant N60, 20 nM
  Tolerance to chlorosulfuron: 4
[15]; transformant N60, 50 nM
  Tolerance to chlorosulfuron: 4
[15]; transformant N60, 100 nM
  Tolerance to chlorosulfuron: 3
[15]; transformant N60, 200 nM
  Tolerance to chlorosulfuron: 3
[15]; transformant N61, 20 nM
  Tolerance to chlorosulfuron: 4
[15]; transformant N61, 50 nM
  Tolerance to chlorosulfuron: 4
[15]; transformant N61, 100 nM
  Tolerance to chlorosulfuron: 2
[15]; transformant N61, 200 nM
  Tolerance to chlorosulfuron: 2
[15]; transformant N69, 20 nM
  Tolerance to chlorosulfuron: 4
[15]; transformant N69, 50 nM
  Tolerance to chlorosulfuron: 4
[15]; transformant N69, 100 nM
  Tolerance to chlorosulfuron: 2
[15]; transformant N69, 200 nM
  Tolerance to chlorosulfuron: 2
